The record followed here is PubChem BioAssay AID2719 (The Scripps Research Institute Molecular Screening Center, 2010).

For the assay, the target named is Mucolipin-3 (Homo sapiens) (UniProt Q8TDD5). Put plainly: TRPML3 and related TRP channel activation – cell-based, HEK293 transfected, Fura-2 ratio imaging, selectivity assay for selective TRPML3 agonist project, profiling panel (AID 2719). The settings on record: fura-2 calcium ratio, at 10 µM, hits give high values.
Sequence of Mucolipin-3 (Homo sapiens) (Q8TDD5 whole entry, looked up): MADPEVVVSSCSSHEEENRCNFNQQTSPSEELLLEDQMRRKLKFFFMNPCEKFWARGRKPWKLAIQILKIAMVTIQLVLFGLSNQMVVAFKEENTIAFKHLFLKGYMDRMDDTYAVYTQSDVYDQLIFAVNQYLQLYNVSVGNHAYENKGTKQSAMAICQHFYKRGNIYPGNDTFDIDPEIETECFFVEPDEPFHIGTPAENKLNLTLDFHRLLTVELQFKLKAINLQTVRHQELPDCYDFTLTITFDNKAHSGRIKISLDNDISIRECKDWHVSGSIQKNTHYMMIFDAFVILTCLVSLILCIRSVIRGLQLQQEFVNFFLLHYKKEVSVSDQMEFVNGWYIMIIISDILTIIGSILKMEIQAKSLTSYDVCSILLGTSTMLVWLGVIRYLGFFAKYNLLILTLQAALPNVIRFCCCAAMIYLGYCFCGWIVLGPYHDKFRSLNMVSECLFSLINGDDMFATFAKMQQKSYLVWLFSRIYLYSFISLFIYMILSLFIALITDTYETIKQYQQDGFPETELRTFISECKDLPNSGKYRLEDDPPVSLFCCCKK
Turning to `CCOc1ccc(S(=O)(=O)N2CCCCCC2)c2ccccc12`, the fura-2 ratio change (340/380) is 1.

On to `CC1CCN(S(=O)(=O)c2ccc(C(C)C)cc2)CC1`, for which the fura-2 ratio change (340/380) was 0.52.

For `Cc1ccc(S(=O)(=O)n2nccc2-c2c(-c3ccc(Cl)cc3)noc2C)cc1`, the fura-2 ratio change (340/380) is 0.72.
